Reference: article PMC12538274, “Paltusotine versus octreotide: different effects on radioligand uptake in neuroendocrine tumours” (Endocrine Oncology, 2025)
Read-outs that look alike come from different tables or passages of the source.

Assays:
[1] = cited from earlier work
SSTR2 = settings: read-out: SSTR2 binding affinity, IC50; cited from earlier work
SSTR1/3/4/5 = test system: SSTR1/3/4/5; parameters: method as in PMID 11980628; settings: cited from earlier work
Excerpt: However, according to current guidelines as well as the FDA/EMA labelling instructions regarding Lutathera®, SSA therapy needs to be discontinued before PRRT ([7], [8], [9]). These recommendations stem from the fact that both SSAs and PRRT target the SSTR2. […] Moreover, long-acting octreotide and prolonged-release lanreotide maintain platea ...

[2] = test system: NCI-H727 cells (human bronchopulmonary NET); assay: Cell Titer Blue cell viability assay, NCI-H727; type: cell-based; settings: 72 h, vs DMSO control
Description: (§1) The BON-1 (human panNET; Prof. R Göke, University of Marburg, Germany), NCI-H727 (human bronchopulmonary NET; ATCC, USA) and QGP-1 cell lines (human panNET; JCRB Cell Bank, Japan) were cultured as previously described ([15]). Moreover, a stable hSSTR2 over-expressing BON-1 cell clone (BON-1 SSTR2) was generated as previously described ([16], [17]).
(§2) GEP-NET cell lines and primary cultures were treated for 72 h with either paltusotine or octreotide, and dimethyl sulfoxide (DMSO) was used as control. Cell Titer Blue® cell viability assay (Promega, USA) was then performed as previously described ([15], [21]). Each experiment included 3–4 samples per drug concentration and patient. Cell line experiments were performed at least three times.

[3] = test system: SSTR2 on the cell surface of HEK293 cells; parameters: method as in PMID 36810324; settings: cited from earlier work
Excerpt: (§3) While G-protein (GP)- and arrestin (ARRB)-mediated effects are induced by full SSTR2 agonists such as octreotide ([35]), biased agonists with GP-mediated effects but diminished ARRB signalling have been reported ([35]). Arrestins play an important role in SSTR internalisation and recycling/degradation ([35]). Zhao et al. compared the molecular binding structure of octreotide and paltusotine to SSTR2 and their molecular signalling, examined β-arrestin recruitment and SSTR2 internalisation/loss of SSTR2 expression on the cell surface of HEK293 cells ([34]).

[4] = test system: β-arrestin recruitment (SSTR2, HEK293 cells); parameters: method as in PMID 36810324; settings: cited from earlier work
Excerpt: as §3

[5] = test system: QGP-1 cells (human panNET); assay: Cell Titer Blue cell viability assay, QGP-1; type: cell-based; settings: 72 h, vs DMSO control
Description: as §1, §2

[6] = test system: BON-1 cells (human panNET); assay: Cell Titer Blue cell viability assay, BON-1; type: cell-based; settings: 72 h, vs DMSO control
Description: as §1, §2

BON-1 SSTR2 cells = assay: Cell Titer Blue cell viability assay, BON-1 SSTR2; type: cell-based, human; settings: 72 h, vs DMSO control
[7] = test system: forskolin-stimulated cAMP accumulation; parameters: method as in PMID 36810324; settings: read-out: Inhibition of forskolin-stimulated cAMP accumulation, EC50; cited from earlier work
[8] = test system: patient-derived GEP-NET primary cultures; assay: Cell Titer Blue cell viability assay, patient-derived GEP-NET primary cultures; type: cell-based, human; settings: 72 h, n = 5
Excerpt: Fresh patient-derived GEP-NET primary cultures were established from surgically-derived patient tumours as previously described ([18]). […] Eleven of these were metastatic GEP-NETs, including six […] = 2 with the carcinoid syndrome) and eight […]. The use of primary tumour tissue as part of NeoExNET was approved by the Ethics Committee of LMU Munich (project number 152-10) and by the Cantonal Ethics Committee Zurich (reference number BASEC 2017-00950). […] GEP-NET cell lines and primary cultures were treated for 72 h with either paltusotine or octreotide, and dimethyl sulfoxide (DMSO) was used as control. Cell Titer Blue® cell viability assay (Promega, USA) was then performed as previously described ([15], [21]). […] Cell line experiments were performed at least three times.

[9] = cited from earlier work; remark: listed apart in the source
Excerpt: Paltusotine is currently being investigated in a randomised phase 2 trial in NET patients with the carcinoid syndrome (NCT05361668), with promising preliminary results ([13]), and a phase 3 trial is currently being planned ([14]). […] Recently, paltusotine received FDA approval for the treatment of patients with acromegaly ([11], [12]).

[10] = target: T1, hSSTR2 (stable hSSTR2 over-expressing BON-1 cells, BON-1 SSTR2) (Homo sapiens, UniProt P30874); assay: 18F-SiTATE uptake assay; type: cell-based
T1 construct: expressed in transfected cells

[11] = test system: NET patients with the carcinoid syndrome; settings: preliminary results, phase 2, NET patients with carcinoid syndrome; cited from earlier work
Excerpt: A newly developed, orally-bioavailable non-peptide SSTR2 agonist, paltusotine, might simplify SSA therapy and is taken orally once daily ([10]). Paltusotine recently received FDA approval for acromegaly treatment based on data from two phase 3 trials ([…]-1 and […]-2/NCT05192382) ([11], [12]).

pituitary tumour cells = test system: pituitary tumour cells; parameters: method as in PMID 36810324; settings: compared to octreotide; cited from earlier work

T1 sequence (P30874 whole entry): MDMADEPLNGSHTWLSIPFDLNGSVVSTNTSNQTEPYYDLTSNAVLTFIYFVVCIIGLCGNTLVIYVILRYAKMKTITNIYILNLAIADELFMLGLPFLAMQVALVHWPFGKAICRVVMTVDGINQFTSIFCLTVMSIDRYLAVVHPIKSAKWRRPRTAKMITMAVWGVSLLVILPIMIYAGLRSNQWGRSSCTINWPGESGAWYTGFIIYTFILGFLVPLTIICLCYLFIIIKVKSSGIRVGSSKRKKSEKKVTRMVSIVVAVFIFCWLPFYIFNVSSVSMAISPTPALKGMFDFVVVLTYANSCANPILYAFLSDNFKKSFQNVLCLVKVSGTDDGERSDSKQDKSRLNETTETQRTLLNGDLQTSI

For `C[C@@H](O)[C@@H]1NC(=O)[C@H](CCCCN)NC(=O)[C@@H](Cc2c[nH]c3ccccc23)NC(=O)[C@H](Cc2ccccc2)NC(=O)[C@@H](NC(=O)[C@H](N)Cc2ccccc2)CSSC[C@@H](C(=O)N[C@H](CO)[C@@H](C)O)NC1=O` [octreotide], the Plasma concentrations ([1]; subcutaneous injections, humans) is listed as “up to 4 nM”.

For lanreotide, the IC50 (SSTR2) is listed as 0.54 nM and the “Binding affinity to SSTR1/3/4/5” value (SSTR1/3/4/5) is listed as “reduced or no binding affinity”.

For somatostatin, the IC50 (SSTR2) is given as 0.15 nM.

For `N#Cc1cccc(-c2ccc3ncc(-c4cc(F)cc(F)c4)c(N4CCC(N)CC4)c3c2)c1O` [paltusotine], the IC50 (SSTR2) is listed as 0.25 nM, the “Effect on cell viability” value ([2]; NCI-H727, 4 nM) is listed as “overall no anti-tumour effects” and the “Effect on cell viability” value ([2]; NCI-H727, 400 nM) is listed as “not found”. For the same compound, the SSTR2 internalisation/desensitisation [3] was “less SSTR2 internalisation/desensitisation”, the β-arrestin recruitment [4] was “much lower β-arrestin recruitment” and the Plasma concentrations ([1]; in vivo) was 22 to 406 nM. The “Effect on cell viability” value ([5]; QGP-1, 4 nM) was “overall no anti-tumour effects”, the “Effect on cell viability” value ([5]; QGP-1, 400 nM) was “slight, significant decrease in cell viability” and the “Effect on cell viability” value ([6]; BON-1, 4 nM) was “overall no anti-tumour effects”. For the same compound, the “Effect on cell viability” value ([6]; BON-1, 400 nM) was “slight, significant increase in viability”, the “Effect on cell viability” value (BON-1 SSTR2 cells; BON-1 SSTR2, 4 nM) was “overall no anti-tumour effects” and the “Effect on cell viability” value (BON-1 SSTR2 cells; BON-1 SSTR2, 400 nM) was “not found”. The EC50 [7] was 2.08 ± 1.39 nM, the “Overall effect on cell viability” value ([8]; 100 nM) was “overall slight anti-tumour effects” and the “Overall effect on cell viability” value ([8]; 500 nM) was “overall slight anti-tumour effects”. For the same compound, the Oral bioavailability [9] was “good oral bioavailability”, the “Effect on 18F-SiTATE radioligand uptake compared to the unblocked control” value ([10]; 73–254 nM (1,000×) and 146–508 nM (2,000×)) was “no significant effects on cellular uptake” and the “Effect on 18F-SiTATE radioligand uptake compared to the unblocked control” value ([10]; low, clinically-relevant concentrations 7.3–25.4 nM (100×)) was “no influence on radioligand binding compared to the unblocked control”. The Symptom control [11] was “improved symptom control”, the Tolerability [11] was “good tolerability” and the Apoptotic rate (pituitary tumour cells) was “increased apoptotic rate compared to octreotide”.
